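Exposure lasted 48 hours, with cells grown in 96-well plates and compounds tested at five concentrations. Abbreviation: GI50, concentration required for 50% inhibition of growth. The concentration for full growth arrest is given as TGI.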
Legend:
Assay in all cases: inhibition of tumour cell growth, NCI panel, 48 h
[1] = system: A549 NSCLC
[2] = system: SNB-75 CNS
[3] = system: HCC-2998 colon
[4] = system: OVCAR-8 ovarian
[5] = system: KM12 colon
[6] = system: BT-549 breast
[7] = system: MDA-MB-231 breast
[8] = system: LOX IMVI melanoma
[9] = system: OVCAR-3 ovarian
[10] = system: NCI-H23 lung
[11] = system: UACC-257 melanoma
[12] = system: COLO 205 colon
[13] = system: SW-620 colon
[14] = system: HOP-92 NSCLC
[15] = system: NCI-H226 lung
[16] = system: IGROV1 ovarian
[17] = system: OVCAR-4 ovarian
[18] = system: 786-0 renal
[19] = system: SN12C renal
[20] = system: OVCAR-5 ovarian
[21] = system: CAKI-1 renal
[22] = system: SK-MEL-5 melanoma
[23] = system: M14 melanoma
[24] = system: MCF7 breast
[25] = system: RPMI-8226 leukemia
[26] = system: EKVX NSCLC
[27] = system: SR leukemia
[28] = system: PC-3 prostate
[29] = system: HT29 colon
[30] = system: SF-268 CNS
[31] = system: MOLT-4 leukemia
[32] = system: A498 renal
[33] = system: K-562 leukemia
[34] = system: HCT-116 colon
[35] = system: SK-MEL-2 melanoma
[36] = system: SNB-19 CNS
[37] = system: ACHN renal
[38] = system: CCRF-CEM leukemia
[39] = system: SK-MEL-28 melanoma
[40] = system: NCI-H522 lung
[41] = system: HS 578T breast
[42] = system: TK-10 renal
[43] = system: HL-60(TB) leukemia
[44] = system: UO-31 renal
[45] = system: NCI/ADR-RES ovarian
[46] = system: NCI-H460 lung
[47] = system: HOP-62 NSCLC
[48] = system: HCT-15 colon
[49] = system: DU-145 prostate
[50] = system: SF-295 CNS
[51] = system: UACC-62 melanoma
[52] = system: U251 CNS
[53] = system: MDA-MB-435
[54] = system: T-47D breast
[55] = system: SF-539 CNS
[56] = system: MALME-3M melanoma

For COc1ccc(/C=C(/C(=O)N2CCCCC2)c2cc(OC)c(OC)c(OC)c2)cc1, the GI50 [1] was 1.5 µM, the TGI [1] was over 100 µM and the GI50 [2] was 0.483 µM. For the same compound, the TGI [2] was over 100 µM, the GI50 [3] was 2.82 µM and the TGI [3] was over 100 µM. For the same compound, the GI50 [4] was 6.12 µM, the TGI [4] was over 100 µM and the GI50 [5] was 0.482 µM. The TGI [5] was over 100 µM, the GI50 [6] was 0.417 µM and the TGI [6] was 29.9 µM. It also gave a GI50 [7] of 4.54 µM, a TGI [7] of over 100 µM and a GI50 [8] of 1.04 µM. It also gave a TGI [8] of over 100 µM, a GI50 [9] of 0.325 µM and a TGI [9] of 1.52 µM. It also gave a GI50 [10] of 3.88 µM, a TGI [10] of over 100 µM and a GI50 [11] of over 100 µM. For the same compound, the TGI [11] was over 100 µM, the GI50 [12] was 0.664 µM and the TGI [12] was 4.9 µM. It also gave a GI50 [13] of 0.506 µM, a TGI [13] of over 100 µM and a GI50 [14] of 12.4 µM. It also gave a TGI [14] of over 100 µM, a GI50 [15] of 3.4 µM and a TGI [15] of over 100 µM. For the same compound, the GI50 [16] was 0.699 µM, the TGI [16] was over 100 µM and the GI50 [17] was 18 µM. For the same compound, the TGI [17] was over 100 µM, the GI50 [18] was 0.404 µM and the TGI [18] was over 100 µM. It also gave a GI50 [19] of 4.52 µM, a TGI [19] of over 100 µM and a GI50 [20] of 5.26 µM. For the same compound, the TGI [20] was over 100 µM, the GI50 [21] was 0.492 µM and the TGI [21] was over 100 µM. The GI50 [22] was 0.753 µM, the TGI [22] was 43.9 µM and the GI50 [23] was 0.478 µM. The TGI [23] was over 100 µM, the GI50 [24] was 0.454 µM and the TGI [24] was over 100 µM. The GI50 [25] was 4.13 µM, the TGI [25] was over 100 µM and the GI50 [26] was 3.4 µM. It also gave a TGI [26] of over 100 µM, a GI50 [27] of 0.593 µM and a TGI [27] of over 100 µM. The GI50 [28] was 0.527 µM, the TGI [28] was over 100 µM and the GI50 [29] was 0.412 µM. For the same compound, the TGI [29] was over 100 µM, the GI50 [30] was 1.79 µM and the TGI [30] was over 100 µM. It also gave a GI50 [31] of 2.06 µM, a TGI [31] of over 100 µM and a GI50 [32] of 0.682 µM. For the same compound, the TGI [32] was 71.7 µM, the GI50 [33] was 0.452 µM and the TGI [33] was over 100 µM. The GI50 [34] was 0.379 µM, the TGI [34] was over 100 µM and the GI50 [35] was 0.967 µM. It also gave a TGI [35] of over 100 µM, a GI50 [36] of 0.946 µM and a TGI [36] of over 100 µM. For the same compound, the GI50 [37] was 0.713 µM, the TGI [37] was over 100 µM and the GI50 [38] was 1.17 µM. For the same compound, the TGI [38] was over 100 µM, the GI50 [39] was 8.89 µM and the TGI [39] was over 100 µM. It also gave a GI50 [40] of 1.7 µM, a TGI [40] of over 100 µM and a GI50 [41] of 0.966 µM. For the same compound, the TGI [41] was over 100 µM, the GI50 [42] was over 100 µM and the TGI [42] was over 100 µM. For the same compound, the GI50 [43] was 0.441 µM, the TGI [43] was 4.1 µM and the GI50 [44] was 4.76 µM. The TGI [44] was over 100 µM, the GI50 [45] was 1.15 µM and the TGI [45] was over 100 µM. It also gave a GI50 [46] of 0.497 µM, a TGI [46] of over 100 µM and a GI50 [47] of 0.911 µM. It also gave a TGI [47] of over 100 µM, a GI50 [48] of 0.579 µM and a TGI [48] of over 100 µM. It also gave a GI50 [49] of 1.5 µM, a TGI [49] of 17.3 µM and a GI50 [50] of 0.422 µM. It also gave a TGI [50] of over 100 µM, a GI50 [51] of 0.44 µM and a TGI [51] of over 100 µM. It also gave a GI50 [52] of 1.48 µM, a TGI [52] of over 100 µM and a GI50 [53] of 0.257 µM. It also gave a TGI [53] of 0.935 µM.
CCOC(=O)C1C(c2ccc3c(c2)OCO3)c2c([nH][nH]c2=O)CC1(O)OCC (stereo not drawn) gave a TGI [1] of over 100 µM, a TGI [2] of over 100 µM and a TGI [3] of over 100 µM. For the same compound, the TGI [4] was over 100 µM, the TGI [5] was over 100 µM and the TGI [7] was over 100 µM. It also gave a TGI [54] of over 100 µM, a TGI [55] of over 100 µM and a TGI [8] of over 100 µM. The TGI [9] was over 100 µM, the TGI [10] was over 100 µM and the TGI [56] was over 100 µM. For the same compound, the TGI [11] was over 100 µM, the TGI [12] was over 100 µM and the TGI [13] was over 100 µM. For the same compound, the TGI [14] was over 100 µM, the TGI [16] was over 100 µM and the TGI [17] was over 100 µM. It also gave a TGI [18] of over 100 µM, a TGI [19] of over 100 µM and a TGI [20] of over 100 µM. The TGI [21] was over 100 µM, the TGI [22] was over 100 µM and the TGI [23] was over 100 µM. The TGI [24] was over 100 µM, the TGI [25] was over 100 µM and the TGI [26] was over 100 µM. The TGI [27] was over 100 µM, the TGI [28] was over 100 µM and the TGI [29] was over 100 µM. It also gave a TGI [30] of over 100 µM, a TGI [31] of over 100 µM and a TGI [32] of over 100 µM. It also gave a TGI [34] of over 100 µM, a TGI [35] of over 100 µM and a TGI [37] of over 100 µM. For the same compound, the TGI [38] was over 100 µM, the TGI [39] was over 100 µM and the TGI [40] was over 100 µM. It also gave a TGI [41] of over 100 µM, a TGI [42] of over 100 µM and a TGI [43] of over 100 µM. It also gave a TGI [44] of over 100 µM, a TGI [45] of over 100 µM and a TGI [46] of over 100 µM. It also gave a TGI [47] of over 100 µM, a TGI [48] of over 100 µM and a TGI [49] of over 100 µM. The TGI [50] was over 100 µM, the TGI [51] was over 100 µM and the TGI [52] was over 100 µM. The TGI [53] was over 100 µM.
